The text below walks through data of ChEMBL document CHEMBL1201862, “PubChem BioAssay data set” (2004).

Calls of active or inactive are those of the source.

The nature of test [1]: cells. The format is functional, cell-based.
A short description of test [2]: cells. In kind it is functional, cell-based. This is another data set of the same source.
Test [3] relates to INS1. Kind of test: beta cell apoptosis inhibitors, cytokine rescue, dose response, luminescence, retest (AID 449756).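 Note: cell death triggered by IL-1 beta plus TNF-alpha plus IFN-gamma mixture; protective hits raise ATP signal compared with cytokine alone wells.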 In kind it is functional, cell-based. The conditions noted are these: Rattus norvegicus.
Test [4] concerns the target Cytochrome P450 2C19 (Homo sapiens, UniProt P33261). In words: Cytochrome panel assay with activity outcomes. Panel member name: p450-cyp2c19 Compounds with AC50 equal or less than 10 uM are considered active. In kind it is functional. The settings on record: read-out: AC50.
Test [5] has as its target Cytochrome P450 2C9 (Homo sapiens, UniProt P11712).
Test [6] in a line: HEp-2 cell cytotoxicity, dose response, cytotoxicity control for RSV inhibitor project, HTS (AID 2410). The format is functional. The settings on record: human respiratory syncytial virus.
Test [7] in a line: inhibitors of intracellular T. cruzi replication, confirmation, NIH3T3 host cells, beta-gal luminescence (AID 2044).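 Note: intracellular parasites grown in NIH/3T3 mouse fibroblasts as host cells; luminescent beta-galactosidase reporter signal from transgenic T. cruzi replicating inside host cells; inhibitors lower the luminescence signal.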 In kind it is functional, cell-based.
Test [8] is described as follows: cytotoxicity toward NIH3T3 fibroblasts, dose response, counter-screen, cell-based, ATP luminescence, mouse fibroblasts (AID 2010).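 Note: cells exposed to compound for about 90 hours before reading.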 The format is functional.
In test [9] the target is Cytochrome P450 3A4 (Homo sapiens, UniProt P08684).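 Note: CYP3A4 tested as one member of a cytochrome P450 panel screen.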
Sequence of Cytochrome P450 3A4 (P08684 whole entry): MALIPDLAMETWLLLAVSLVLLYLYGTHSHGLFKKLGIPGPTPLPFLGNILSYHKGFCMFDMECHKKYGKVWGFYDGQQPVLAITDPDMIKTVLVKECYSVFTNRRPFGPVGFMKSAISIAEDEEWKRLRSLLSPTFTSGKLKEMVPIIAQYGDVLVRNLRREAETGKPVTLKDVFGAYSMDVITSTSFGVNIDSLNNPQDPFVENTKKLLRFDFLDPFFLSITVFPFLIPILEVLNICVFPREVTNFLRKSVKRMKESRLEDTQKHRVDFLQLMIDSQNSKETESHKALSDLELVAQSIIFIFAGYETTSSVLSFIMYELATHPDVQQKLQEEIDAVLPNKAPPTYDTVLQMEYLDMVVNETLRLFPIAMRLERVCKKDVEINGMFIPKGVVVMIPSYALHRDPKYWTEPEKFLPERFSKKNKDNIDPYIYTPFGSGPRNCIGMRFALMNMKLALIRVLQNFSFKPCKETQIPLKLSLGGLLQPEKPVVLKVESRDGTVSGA
Test [10] concerns the target T1, Streptokinase A (Streptococcus pyogenes serotype M1, UniProt P10520).
T1 sequence (P10520 whole entry): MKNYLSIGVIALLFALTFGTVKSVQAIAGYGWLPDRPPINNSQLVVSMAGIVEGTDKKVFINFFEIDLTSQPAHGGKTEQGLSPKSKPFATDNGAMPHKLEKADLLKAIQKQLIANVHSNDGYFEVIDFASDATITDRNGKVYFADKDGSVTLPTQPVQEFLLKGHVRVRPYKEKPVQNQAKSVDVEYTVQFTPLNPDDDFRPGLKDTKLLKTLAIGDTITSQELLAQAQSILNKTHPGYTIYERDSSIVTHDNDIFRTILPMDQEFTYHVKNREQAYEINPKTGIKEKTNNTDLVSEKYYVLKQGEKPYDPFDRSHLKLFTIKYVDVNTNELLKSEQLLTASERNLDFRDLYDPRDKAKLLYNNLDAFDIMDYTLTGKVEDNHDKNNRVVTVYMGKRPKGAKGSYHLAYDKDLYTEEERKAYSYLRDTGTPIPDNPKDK
In words: S. pyogenes streptokinase expression inhibitors, potency, dose response, plasminogen activation absorbance, OD405 (AID 1914).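 Note: secreted streptokinase activity via plasminogen activation per viability signal from cell pellet.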 In kind it is functional, Streptococcus pyogenes M1 GAS.

The target in test [11] is T2, Replicative DNA helicase DnaB (Mycobacterium tuberculosis, UniProt P9WMR3).
T2 sequence (P9WMR3 whole entry): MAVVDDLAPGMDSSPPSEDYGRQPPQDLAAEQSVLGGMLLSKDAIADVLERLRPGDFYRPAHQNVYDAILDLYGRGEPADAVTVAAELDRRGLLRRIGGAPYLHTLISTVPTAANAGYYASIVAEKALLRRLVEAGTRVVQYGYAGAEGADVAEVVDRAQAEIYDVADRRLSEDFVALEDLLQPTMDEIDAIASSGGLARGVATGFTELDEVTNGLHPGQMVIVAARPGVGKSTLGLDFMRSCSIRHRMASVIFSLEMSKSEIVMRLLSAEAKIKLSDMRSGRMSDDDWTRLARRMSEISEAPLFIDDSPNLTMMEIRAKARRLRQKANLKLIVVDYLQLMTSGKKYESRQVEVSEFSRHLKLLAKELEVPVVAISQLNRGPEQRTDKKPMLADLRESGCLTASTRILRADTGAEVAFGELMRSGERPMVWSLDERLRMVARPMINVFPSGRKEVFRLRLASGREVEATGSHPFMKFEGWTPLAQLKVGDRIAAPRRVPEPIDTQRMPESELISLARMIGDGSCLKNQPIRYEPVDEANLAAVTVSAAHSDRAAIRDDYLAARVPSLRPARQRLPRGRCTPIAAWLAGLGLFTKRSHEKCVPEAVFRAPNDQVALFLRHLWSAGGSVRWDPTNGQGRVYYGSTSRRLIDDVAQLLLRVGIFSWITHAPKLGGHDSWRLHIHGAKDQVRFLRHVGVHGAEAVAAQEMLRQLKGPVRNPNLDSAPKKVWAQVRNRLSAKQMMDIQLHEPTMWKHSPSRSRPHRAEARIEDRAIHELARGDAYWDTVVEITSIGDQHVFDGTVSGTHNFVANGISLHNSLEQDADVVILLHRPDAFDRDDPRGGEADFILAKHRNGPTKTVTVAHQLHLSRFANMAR
In words: DnaB intein splicing inhibitors, dose response, biochemical, cell-free fluorescence (AID 449749). The format is functional.

The target in test [12] is T3, Protein RecA (Mycobacterium tuberculosis, UniProt P9WHJ3).
T3 sequence (P9WHJ3 whole entry): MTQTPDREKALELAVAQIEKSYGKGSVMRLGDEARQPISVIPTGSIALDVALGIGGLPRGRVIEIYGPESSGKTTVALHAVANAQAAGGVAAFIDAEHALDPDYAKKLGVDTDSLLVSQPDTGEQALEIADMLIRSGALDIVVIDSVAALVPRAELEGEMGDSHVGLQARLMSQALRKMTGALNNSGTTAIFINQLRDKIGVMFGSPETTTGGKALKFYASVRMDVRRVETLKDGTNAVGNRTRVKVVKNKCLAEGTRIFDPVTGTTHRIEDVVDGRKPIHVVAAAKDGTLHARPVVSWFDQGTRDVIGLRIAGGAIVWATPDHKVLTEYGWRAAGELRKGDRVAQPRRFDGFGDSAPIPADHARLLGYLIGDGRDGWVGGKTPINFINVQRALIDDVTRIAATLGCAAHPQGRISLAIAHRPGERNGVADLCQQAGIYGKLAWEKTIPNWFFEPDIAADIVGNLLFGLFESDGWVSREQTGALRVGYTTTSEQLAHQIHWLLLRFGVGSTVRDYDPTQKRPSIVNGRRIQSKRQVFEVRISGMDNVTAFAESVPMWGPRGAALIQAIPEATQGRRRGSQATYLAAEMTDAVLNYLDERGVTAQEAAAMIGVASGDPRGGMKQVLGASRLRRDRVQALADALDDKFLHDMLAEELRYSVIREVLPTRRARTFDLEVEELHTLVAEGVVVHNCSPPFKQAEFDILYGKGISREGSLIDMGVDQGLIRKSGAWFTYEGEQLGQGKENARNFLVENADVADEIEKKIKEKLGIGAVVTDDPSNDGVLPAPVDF
In words: Fluorescence Cell-Free Homogeneous Dose Retest to Identify Inhibitors of RecA-Intein Splicing Activity. [Related pubchem assays (depositor defined):AID2097, AID2223, AID489010, AID492950]. In kind it is functional.

The test system of test [13] is Streptococcus sp. 'group A'. In words: growth inhibition of control SK(-) GAS strain, dose response, counter-screen for streptokinase expression inhibitor project, luminescence, kanamycin, BacTiterGlo, confirmation (AID 1900). The format is functional, organism-based.
Test [14] relates to Streptococcus. In words: Group A Streptococcus viability loss, dose response, counter-screen for streptokinase expression inhibitor project, luminescence, BacTiterGlo (AID 1915).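 Note: potency for reduction of bacterial viability or growth.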 In kind it is functional, organism-based.
Test [15] can be described thus: Luminescence Cell-Based Dose Retest to Confirm Inhibitors of Cancer Stem Cells. [Related pubchem assays (depositor defined):AID2717, AID2721]. In kind it is functional. The conditions noted are these: Homo sapiens.
For test [16], the target named is T4, Cytochrome P450 1A2 (Homo sapiens, UniProt P05177).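 Note: PubChem cytochrome P450 panel assay, CYP1A2 panel member.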
T4 sequence (P05177 whole entry): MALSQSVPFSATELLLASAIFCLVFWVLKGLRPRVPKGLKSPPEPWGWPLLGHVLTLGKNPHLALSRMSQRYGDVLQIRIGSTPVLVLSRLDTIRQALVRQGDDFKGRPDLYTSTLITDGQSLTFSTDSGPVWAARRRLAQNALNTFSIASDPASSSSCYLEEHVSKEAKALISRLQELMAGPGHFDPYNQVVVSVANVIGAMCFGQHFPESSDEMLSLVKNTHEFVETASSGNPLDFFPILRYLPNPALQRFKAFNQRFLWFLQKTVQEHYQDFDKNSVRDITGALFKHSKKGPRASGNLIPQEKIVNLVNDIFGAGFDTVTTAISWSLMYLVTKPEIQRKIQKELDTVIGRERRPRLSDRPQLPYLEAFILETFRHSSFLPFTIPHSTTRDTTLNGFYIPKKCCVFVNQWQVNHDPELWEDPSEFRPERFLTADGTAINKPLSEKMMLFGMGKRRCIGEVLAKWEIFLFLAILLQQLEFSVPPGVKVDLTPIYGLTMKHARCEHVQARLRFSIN

Sequence of Cytochrome P450 2C19 (P33261 whole entry): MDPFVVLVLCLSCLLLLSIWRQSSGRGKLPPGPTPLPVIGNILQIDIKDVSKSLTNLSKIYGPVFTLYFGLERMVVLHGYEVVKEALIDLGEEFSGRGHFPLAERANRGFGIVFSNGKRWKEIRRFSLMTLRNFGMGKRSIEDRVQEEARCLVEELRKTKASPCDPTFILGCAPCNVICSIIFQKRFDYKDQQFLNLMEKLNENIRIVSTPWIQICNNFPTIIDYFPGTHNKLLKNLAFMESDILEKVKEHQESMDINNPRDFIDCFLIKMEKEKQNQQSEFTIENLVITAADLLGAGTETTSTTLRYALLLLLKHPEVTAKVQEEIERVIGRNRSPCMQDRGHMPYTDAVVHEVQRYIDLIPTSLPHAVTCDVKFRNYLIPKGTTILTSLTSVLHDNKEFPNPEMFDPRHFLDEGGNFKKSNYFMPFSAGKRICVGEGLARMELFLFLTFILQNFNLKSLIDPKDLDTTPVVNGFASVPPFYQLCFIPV
Sequence of Cytochrome P450 2C9 (P11712 whole entry): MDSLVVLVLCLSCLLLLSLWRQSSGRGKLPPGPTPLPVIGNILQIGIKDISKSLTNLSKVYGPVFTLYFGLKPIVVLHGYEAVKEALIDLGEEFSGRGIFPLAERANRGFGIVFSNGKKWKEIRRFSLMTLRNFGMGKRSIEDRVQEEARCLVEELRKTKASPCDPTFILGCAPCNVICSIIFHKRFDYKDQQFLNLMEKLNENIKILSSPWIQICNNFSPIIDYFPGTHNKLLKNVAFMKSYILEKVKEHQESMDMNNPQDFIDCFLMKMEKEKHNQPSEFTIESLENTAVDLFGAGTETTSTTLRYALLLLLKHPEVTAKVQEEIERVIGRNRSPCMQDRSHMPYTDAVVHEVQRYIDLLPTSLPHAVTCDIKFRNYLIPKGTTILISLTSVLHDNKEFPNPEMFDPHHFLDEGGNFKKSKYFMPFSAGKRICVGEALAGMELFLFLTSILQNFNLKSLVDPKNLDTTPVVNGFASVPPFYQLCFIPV

Regarding `CC(=O)c1ccc(N(C(=O)c2csnn2)C(C(=O)NC(C)(C)C)c2cccs2)cc1` (stereo not drawn), the EC50 in test [1] and in test [2] was > 350 µM (not active) each time.

As for `Cc1cc(SCC(=O)N/N=C/c2ccccc2C(=O)O)c(C)cc1Br`, the concentration for a half-maximal effect (EC50) in [1] and in [2] was > 350 µM (not active) throughout.

Take `CNc1nc(N)c([N+](=O)[O-])c(Nc2cccc(F)c2)n1`: the AC50 in [3] is > 260 µM (inactive).

On to `COC(=O)Cn1c(C(=O)N(C)C)cc2c1C[C@H]1CN(C(=O)c3ccccc3)[C@@](Cc3ccc(OC)cc3)(C(=O)OC)[C@@H]21`, for which the values for the half-maximal activity concentration (AC50) in [4] and in test [5] were 20 µM (inconclusive) and 12.6 µM (inconclusive), respectively.

Turning to `COC(=O)Nc1nnc(Cc2ccc(OC)cc2)s1`, the EC50 in [1] and in [2] was > 350 µM (not active) each time.

As to `CCOC(=O)c1c(C)[nH]c(C(=O)/C(C#N)=C/c2ccc(OC)c(OC)c2)c1C`, in [6], the CC50 is > 50 µM (active).

Take `O=C(Cn1c(-c2ccccc2)c[n+]2ccsc12)c1ccc([N+](=O)[O-])cc1`: the figures for the EC50 in test [7] and in test [8] were 0.549 µM (active) and > 60 µM (not active), respectively. For the same molecule, in test [3], the AC50 was 11.6 µM (active).

For the molecule `Cc1ccc(Nc2nc(Cl)c(C=O)s2)cc1Cl`, the half-maximal cytotoxic concentration (CC50) in [6] is 19.2 µM (active).

`O=c1c(-c2cccs2)nc2cnc(Oc3ccccc3)nc2n1C1CC1`: the AC50 in [4] was 1.58 µM (inconclusive).

Take `COc1cc(C(=O)NCC(c2cccnc2)N2CCN(C)CC2)cc(OC)c1OC` (stereo not drawn): the AC50 in [4] was 39.8 µM (inconclusive).

Take `Cc1ccc(NC(=O)CN2C(=O)NC(C)(c3ccc(Cl)cc3)C2=O)c(Br)c1` (stereo not drawn): the CC50 in test [6] is 30.1 µM (active).

Regarding `Cc1cc(-n2nnc3ccccc32)nc2ccccc12`, the half-maximal cytotoxic concentration (CC50) in test [6] is 19.1 µM (active).

Turning to `Cc1ccc(NC(=O)C2CC(=O)n3c(nc4ccccc43)N2)cc1` (stereo not drawn), the AC50 in test [4] was 6.31 µM (inconclusive); in test [9] it was 17.8 µM (inconclusive); in test [5] it was 0.0355 µM (inconclusive).

In the case of `O=C1c2[nH]nc(-c3ccccc3O)c2C(c2cccc(Cl)c2)N1Cc1ccco1` (stereo not drawn), the values for the concentration for a half-maximal effect (EC50) in test [10] and in test [12] were 15.8 µM (active) and > 380 µM (inconclusive), respectively. In addition, the AC50 in test [11] was 66.5 µM (active).

Regarding `CCC(C)Sc1cccc(-c2nc3ccc(C)cn3c2NCc2ccccc2)c1` (stereo not drawn), the EC50 is 3.25 µM (active) in [13], 4.26 µM (active) in test [10] and 10.3 µM (active) in [14]. The concentration at half-maximal activity (AC50) in test [15] is 2.75 µM (active); in test [3] it was 7.39 µM (active).

Turning to `CC(Oc1ccc2c3c(c(=O)oc2c1)CCCC3)C(=O)NCC(O)c1ccccc1` (stereo not drawn), the EC50 in test [1] is given as > 350 µM (not active).

Consider `O=C(c1ccccc1)N1CCCC(c2ccc(Cl)cc2)=N1`, for which the CC50 in test [6] is 42.4 µM (active).

In the case of `O=C(CSc1ncccn1)Nc1ccc(S(=O)(=O)N2CCCCC2)cc1`, the AC50 in test [4] and in test [9] was 25.1 µM (inconclusive) in each case.

With `C=CCn1c(SCC(=O)Nc2ncc(Cc3ccc(Br)cc3)s2)nnc1-c1ccncc1`, in test [4], the AC50 was 2.82 µM (inconclusive).

Regarding `COc1ccc(-n2c(C)cc(C=O)c2C)cc1Cl`, the AC50 is 3.98 µM (inconclusive) in [4], 14.1 µM (inconclusive) in [16] and 17.8 µM (inconclusive) in [5].

For the molecule `C/C(=N\NC(=O)C(=O)Nc1cccc(Cl)c1)c1ccncc1`, the AC50 in test [3] is 4.88 µM (active).

Take `O=C(CN1C(=O)NC2(CCCCCC2)C1=O)N1CCN(S(=O)(=O)c2ccc(Cl)cc2)CC1`: the AC50 in test [4] was 20 µM (inconclusive); in [5], 17.8 µM (inconclusive).

For the molecule `CCOc1ccc(CNc2ccc(CNc3nc[nH]n3)cc2)cc1`, the 50% cytotoxic concentration (CC50) in test [6] was 18 µM (active).

With `Cc1ccc(/C=N/NC(=O)Cc2ccc(Cl)cc2)c(O)c1`, the values for the concentration for a half-maximal effect (EC50) in [13] and in test [14] were 1.1 µM (active) and 3.08 µM (active), respectively. Moreover, the AC50 in test [3] was 3.76 µM (active).

Take `Cc1ncsc1C(=O)N1N=C2/C(=C/c3ccccc3)CCCC2C1c1ccccc1` (stereo not drawn): the AC50 in [4] and in test [16] was 17.8 µM (inconclusive) throughout.

`Cc1ccc(C)c(S(=O)(=O)Nc2ccc(O)c3ccccc23)c1`: the AC50 in test [11] is 0.384 µM (active); in [3] it was 7.62 µM (active). Besides, in [12], the EC50 is 0.0745 µM (active).

For the molecule `CC(C)C(NC(=O)C1CCCCC1)C(=O)NC1CCN(Cc2ccccc2)CC1` (stereo not drawn), in test [4], the concentration at half-maximal activity (AC50) is 3.55 µM (inconclusive).

As to `CCN1C=C(Cc2ccccc2C)C2=C(C1)C(c1ccccc1C)C(C#N)=C(N)O2` (stereo not drawn), the CC50 in [6] was 13.1 µM (active).

In the case of `COc1ccc(-c2nc3n(c2Br)CCC3)cc1`, the CC50 in test [6] is 30.9 µM (active).

Consider `COc1ccc(NC(=O)CSc2nc3cc[nH]cc-3n2)c(OC)c1`, for which, in test [6], the CC50 was 33.1 µM (active).
